Experimental data taken from ChEMBL document CHEMBL1136182, “Cage amines as the stopper inhibitors of cholinesterases” (Bioorg Med Chem Lett, 2003).

How the values were obtained:
[1] = molecular target: Acetylcholinesterase (Electrophorus electricus) (UniProt O42275); experiment: Selectivity ratio of inhibition of acetylcholinesterase-AChE to that of inhibition of butyrylcholinesterase-BChE
Acetylcholinesterase = Acetylcholinesterase (Electrophorus electricus, UniProt O42275); experiment: Inhibitory activity against acetylcholinesterase
Chain of Acetylcholinesterase (O42275 whole entry): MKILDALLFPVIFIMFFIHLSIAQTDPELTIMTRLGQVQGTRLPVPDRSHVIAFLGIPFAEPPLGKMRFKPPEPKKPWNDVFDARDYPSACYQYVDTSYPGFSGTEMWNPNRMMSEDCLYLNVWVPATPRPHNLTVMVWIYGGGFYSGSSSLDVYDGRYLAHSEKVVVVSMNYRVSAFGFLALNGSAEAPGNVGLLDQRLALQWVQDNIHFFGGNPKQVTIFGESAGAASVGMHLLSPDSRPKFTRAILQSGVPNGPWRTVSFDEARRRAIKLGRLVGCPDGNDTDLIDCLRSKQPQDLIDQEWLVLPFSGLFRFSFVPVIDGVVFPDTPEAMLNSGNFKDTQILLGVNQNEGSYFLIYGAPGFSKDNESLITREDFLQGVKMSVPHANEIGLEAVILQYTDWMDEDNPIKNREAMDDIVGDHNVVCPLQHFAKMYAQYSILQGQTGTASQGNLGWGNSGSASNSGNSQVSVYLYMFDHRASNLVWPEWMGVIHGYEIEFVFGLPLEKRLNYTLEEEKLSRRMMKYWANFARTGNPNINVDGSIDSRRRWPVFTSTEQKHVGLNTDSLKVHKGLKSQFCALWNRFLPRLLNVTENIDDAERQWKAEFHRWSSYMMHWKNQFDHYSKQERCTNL

Butyrylcholinesterase = Butyrylcholinesterase (Equus caballus, UniProt Q9N1N9); experiment: Inhibitory activity against Butyrylcholinesterase
Chain of Butyrylcholinesterase (Q9N1N9 whole entry): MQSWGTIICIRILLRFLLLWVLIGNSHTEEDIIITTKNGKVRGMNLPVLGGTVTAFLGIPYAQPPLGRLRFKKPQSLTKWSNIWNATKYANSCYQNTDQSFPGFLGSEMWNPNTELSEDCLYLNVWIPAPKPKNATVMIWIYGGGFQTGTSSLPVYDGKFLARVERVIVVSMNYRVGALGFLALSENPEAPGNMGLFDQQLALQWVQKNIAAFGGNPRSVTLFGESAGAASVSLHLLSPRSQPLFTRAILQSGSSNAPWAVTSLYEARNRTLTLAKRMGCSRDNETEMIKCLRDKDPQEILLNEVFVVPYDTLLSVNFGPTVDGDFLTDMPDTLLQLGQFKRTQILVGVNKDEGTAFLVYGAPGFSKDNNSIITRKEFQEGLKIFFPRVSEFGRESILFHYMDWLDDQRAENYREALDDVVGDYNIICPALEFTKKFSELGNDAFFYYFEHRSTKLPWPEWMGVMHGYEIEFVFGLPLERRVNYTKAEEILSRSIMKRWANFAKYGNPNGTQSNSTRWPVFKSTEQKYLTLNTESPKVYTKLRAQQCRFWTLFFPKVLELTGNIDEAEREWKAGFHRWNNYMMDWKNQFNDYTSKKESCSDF

Chain of Acetylcholinesterase (Electrophorus electricus) (O42275 24-633 limits assumed): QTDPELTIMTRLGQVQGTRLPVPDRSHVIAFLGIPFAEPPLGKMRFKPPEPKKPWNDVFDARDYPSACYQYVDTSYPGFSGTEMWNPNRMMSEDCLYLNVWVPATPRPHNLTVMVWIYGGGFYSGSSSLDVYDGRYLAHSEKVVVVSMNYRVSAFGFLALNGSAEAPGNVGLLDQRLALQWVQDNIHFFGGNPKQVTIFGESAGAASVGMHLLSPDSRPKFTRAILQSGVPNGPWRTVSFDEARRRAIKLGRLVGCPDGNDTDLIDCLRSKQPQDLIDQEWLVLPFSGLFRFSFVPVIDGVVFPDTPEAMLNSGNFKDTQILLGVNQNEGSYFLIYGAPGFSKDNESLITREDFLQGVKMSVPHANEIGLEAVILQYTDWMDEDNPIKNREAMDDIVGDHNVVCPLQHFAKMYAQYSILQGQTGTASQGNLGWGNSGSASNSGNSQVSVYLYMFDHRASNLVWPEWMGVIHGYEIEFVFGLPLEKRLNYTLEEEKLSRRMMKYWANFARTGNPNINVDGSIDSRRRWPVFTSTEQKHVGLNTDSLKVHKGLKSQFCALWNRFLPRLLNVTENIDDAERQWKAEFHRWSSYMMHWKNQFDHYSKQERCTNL

Structure (SMILES)	Ratio [1]	Ki (Acetylcholinesterase) [nM]	Ki (Butyrylcholinesterase) [nM]
c1cc2c(cc1CNC1C3N(Cc4ccc5c(c4)OCO5)C4C(N1Cc1ccc5c(c1)OCO5)N(Cc1ccc5c(c1)OCO5)C1(CC1N3Cc1ccc3c(c1)OCO3)N4Cc1ccc3c(c1)OCO3)OCO2 (centres undefined)	1	320	310
Clc1ccccc1CNC1C2N(Cc3ccccc3Cl)C3C(N1Cc1ccccc1Cl)N(Cc1ccccc1Cl)C1(CC1N2Cc1ccccc1Cl)N3Cc1ccccc1Cl (centres undefined)	3.9	39	10
COc1cc(CNC2C3N(Cc4cc(OC)cc(OC)c4)C4C(N2Cc2cc(OC)cc(OC)c2)N(Cc2cc(OC)cc(OC)c2)C2(CC2N3Cc2cc(OC)cc(OC)c2)N4Cc2cc(OC)cc(OC)c2)cc(OC)c1 (centres undefined)	2.2	130	60
